What was measured:
[1] = tested on: GEO human colon cancer cells; test: Soft agar growth of GEO cells; assay type: cell-based
Protocol: Cells (10^4 cells/well) were seeded in 0.5 ml of 0.3% Difco Noble agar (Difco, Detroit, Mich.) supplemented with complete culture medium. This suspension was layered over 0.5 ml of 0.8% agar-medium base layer in 24 multiwell cluster dishes (Becton Dickinson) and treated with various concentrations of paclitaxel (day 0). The HYB 165 was added after 12 hrs (day 1) and on day 2, 3 and 4. 12 days after the last treatment, cells were stained with nitroblue tetrazolium (Sigma) and colonies larger than 0.05 mm were counted.

[2] = tested on: 1A9PTX22 human ovarian cancer cells; test: Soft agar growth of 1A9PTX22 cells; assay type: cell-based
Protocol: (§1) Cell lines. The 1A9PTX22 cell line, a paclitaxel (PTX)-resistant clone of the human ovarian carcinoma cell line 1A9, was isolated by exposing 1A9 cells to 5 ng/ml PTX in the presence of 5 μg/ml verapamil, a P glicoprotein antagonist. 1A9PTX22 cells were kindly provided by Dr. Giannakakou, NCI Bethesda, Md., USA. Cells were maintained in RPMI medium supplemented with 10% heat-inactivated FBS, 20 mM HEPES, pH 7.4 penicillin (100 UI/ml), streptomycin (100 μg/ml) and 4 mM glutamine (ICN, Irvine, UK) 15 ng/ml PIX and 5 μg/ml verapamil in a humified atmosphere of 95% air and 5% CO2 at 37° C. 7 days before experiments were performed, PTX and verapamil were removed from culture medium.
(§2) Soft agar growth. Cells (10^4 cells/well) were seeded in 0.5 ml of 0.3% Difco Noble agar (Difco, Detroit, Mich.) supplemented with complete culture medium. This suspension was layered over 0.5 ml of 0.8% agar-medium base layer in 24 multiwell cluster dishes (Becton Dickinson) and treated with various concentrations of HYB 165 or HYB508 every 4g hours for three times. After 12 days the cells were stained with nitroblue tetrazolium (Sigma, St. Louis, Mo.) and colonies larger than 0.05 mm were counted.

[3] = tested on: 1A9PTX10 human ovarian cancer cells; test: Soft agar growth of 1A9PTX10 cells; assay type: cell-based
Protocol: as §1, with “1A9PTX10” for “1A9PTX22”, “7.4,” for “7.4”, “PTX” for “PIX”
as §2, with “48” for “4g”

[4] = tested on: GEO colon cancer xenografts; test: GEO colon cancer xenografts in nude mice (tumor growth, survival); assay type: in vivo; conditions: for inhibition of tumor growth: 10 mg/kg/dose
Protocol: We investigated the antitumor activity of HYB 165 (AS RIα) in nude mice bearing GEO colon cancer xenografts, using either the intraperitoneal (i.p.) or the oral route of administration. When established GEO tumors of approximately […] were detectable, groups of 10 mice were treated i.p. with either HYB 165 or a control modified backbone oligonucleotide with a scrambled sequence, at 5 or 10 mg/kg/dose, daily on days 7 to 11 and 14 to 18. […] The control oligonucleotide produced no inhibition at 10 mg/kg/dose.
Following oral administration, modified backbone oligonucleotides (MBOs) are absorbed in the upper and lower part of the GI tract and distributed to major organs (S. Agrawal and R. Zhang, In: Antisense Research and Application, S. T. Crooke, ed.), Handbook of Experimental Pharmacology, Springer, Berlin, p. 525–543 (1998). Therefore, HYB 165 and the control oligonucleotide were administered to GEO tumor-bearing mice as described above, except that HYB 165 and the control oligonucleotide were administered orally.
On day 7 after tumor cell injection, one group of 10 mice was treated with taxol (20 mg/kg/dose, i.p.), and the treatment was repeated every 2 weeks (on day 21 and day 35) for a total of three cycles. Two other groups of mice were treated with either HYB 165 (AS RIα) or a control MBO with a scrambled sequence (10 mg/kg/dose, p.o.), daily for five days (days 8–12). Treatment was repeated every 2 weeks (days 22–26 and days 36–40) for a total of three cycles. Two more groups of mice were treated with taxol and either HYB 165 or the control MBO, administering the taxol (20 mg/kg/dose, i.p.) on day 7, followed by oral administration of either HYB 165 or the control MBO daily for five days (days 8–12). The sequential treatment was repeated with the same schedule every 2 weeks for a total of three cycles.

[5] = tested on: RIα protein; test: Histochemical analysis of GEO tumors: RIα; assay type: in vivo, human
Source text: (§3) Tumor specimens from the different groups of mice were examined by histochemical analysis at different time points to evaluate the expression of a variety of biological parameters. […] No other treatment was able to affect RIα expression.

[6] = tested on: Ki67; test: Histochemical analysis of GEO tumors: Ki67 staining; assay type: in vivo; conditions: combination of taxol and HYB 165
Source text: as §3
TGFα and AR are growth factors which bind to EGFR and control human colon cancer growth through autocrine and paracrine mechanisms (F. Ciardiello and G. Tortora, Clin. Cancer Res. 4:821–828 (1998); D. S. Salomon, Crit. Rev. Oncol. Hematol. 19:183–232 (1995)).

Substance: HYB 165: Hybrid 18-mer mixed backbone antisense to PKA RIα, GCGUGCCTCCTCACUGGC (SEQ ID NO:4), 2-O-methyl ribonucleotides at 5′ and 3′ ends (sugars by position and backbone not given here; 2'-O-methyl ribonucleotides at both ends, mixed backbone)
- growth inhibition ([1]; HYB 165 0.5 μM after paclitaxel 1 nM): 40%
- growth inhibition ([1]; HYB 165 0.5 μM after paclitaxel 5 nM): 62%
- growth inhibition ([1]; HYB 165 0.5 μM after paclitaxel 10 nM): 86%
- growth inhibition ([1]; HYB 165 0.5 μM alone): about 20%
- cooperative effect of the combination ([1]; HYB 165 0.5 μM, sequential combination with different doses of paclitaxel): cooperatively inhibit the growth of GEO cells
- inhibition of cell growth ([2]; 0.1 μM): approximately 5%
- inhibition of cell growth ([2]; 0.5 μM): about 50%
- inhibition of cell growth ([2]; 1 μM): about 82%
- inhibition of cell growth ([2]; 2.5 μM): over 95%
- inhibition of cell growth ([3]; 0.1 μM): approximately 5%
- inhibition of cell growth ([3]; 0.5 μM): about 43%
- inhibition of cell growth ([3]; 1 μM): about 70%
- inhibition of cell growth ([3]; 2.5 μM): over 85%
- inhibition of tumor size ([4]; 10 mg/kg/dose p.o., at the completion of the three cycles of treatment): over 50%
- tumor growth ([4]; MBO 10 mg/kg/dose p.o. in combination with taxol 20 mg/kg/dose i.p., three cycles): marked and sustained inhibition of tumor growth
- survival ([4]; MBO p.o. in combination with taxol i.p., three cycles): prolonged mouse life span
- tolerability (weight loss, signs of acute or delayed toxicity) ([4]; combined treatment with taxol and HYB 165): well tolerated
- inhibition of tumor growth ([4]; i.p., daily on days 7 to 11 and 14 to 18, FIG. 16A): up to 40%
- inhibition of tumor growth ([4]; oral, two cycles, vs untreated mice, FIG. 16B): about 60%
- tumor growth ([4]; single agent, three cycles (taxol 20 mg/kg/dose i.p.; MBO 10 mg/kg/dose p.o.), FIG. 17A): inhibited tumor growth
- survival time ([4]; single agent, three cycles, FIG. 17B): increased survival time as compared to the control group
- time of very slow tumor growth following the end of treatment ([4]; taxol 20 mg/kg/dose i.p. and HYB 165 10 mg/kg/dose p.o., three cycles): approximately 60 days
- mice still alive after 15 weeks ([4]; taxol and HYB 165 in combination): about 50%
- expression of RIα protein in the tumor ([5]; in combination with taxol, after two cycles): further increased
- expression of RIα protein in the tumor ([5]; single agent, after two cycles of treatment, FIG. 18): inhited expression of the target RIα protein in the tumor
- cell proliferation by Ki67 staining [6]: almost completely suppressed cell proliferation
